Experimental data as given in patent US10125150B2, “Crystalline forms of a PI3K inhibitor” (Incyte Corporation, priority 2015, dated 2018).
pIC50: −log10 of the molar value.

How the values were obtained:
JAK2 (a.a. 828-1132) = JAK2 (a.a. 828-1132) (Homo sapiens (Human), UniProt O60674); assay: In vitro JAK kinase assay (Example D), JAK2; type: biochemical; conditions: ratio JAK2/JAK1 of IC50s, 1 mM ATP
[1] = target: human JAK1 (a.a. 837-1142) (Homo sapiens, UniProt P23458); assay: In vitro JAK kinase assay (Example D), JAK1; type: biochemical; conditions: 1 mM ATP

Sequence of JAK2 (a.a. 828-1132) (O60674 828-1132): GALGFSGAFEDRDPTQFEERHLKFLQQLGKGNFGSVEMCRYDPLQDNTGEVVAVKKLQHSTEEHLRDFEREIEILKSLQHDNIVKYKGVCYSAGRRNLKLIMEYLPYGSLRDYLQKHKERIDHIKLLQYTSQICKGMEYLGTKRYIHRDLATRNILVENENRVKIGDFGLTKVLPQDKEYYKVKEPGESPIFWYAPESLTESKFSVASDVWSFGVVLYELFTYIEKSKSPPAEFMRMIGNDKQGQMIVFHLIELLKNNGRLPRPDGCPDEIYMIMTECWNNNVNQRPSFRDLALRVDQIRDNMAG

Structure (SMILES)	JAK2/JAK1 (JAK2 (a.a. 828-1132))	pIC50 [1]
C[C@@H](O)c1nc2cnc3ccsc3c2n1[C@H]1CC[C@H](CC#N)OC1 [Form 1, ((2R,5S)-5-{2-[(1R)-1-hydroxyethyl]-1H-imidazo[4,5-d]thieno[3,2-b]pyridin-1-yl}tetrahydro-2H-pyran-2-yl)acetonitrile]	>10	> 7.00
N#CC[C@]1(n2cc(-c3ncnc4[nH]ccc34)cn2)C[C@H](N2CCC(Oc3cc(CN4CCC[C@H]4CO)cc(C(F)(F)F)n3)CC2)C1 [Form 12, {trans-3-(4-{[4-{[(2S)-2-(hydroxymethyl)pyrrolidin-1-yl]methyl}-6-(trifluoromethyl)pyridin-2-yl]oxy}piperidin-1-yl)-1-[4-(7H-pyrrolo[2,3-d]pyrimidin-4-yl)-1H-pyrazol-1-yl]cyclobutyl}acetonitrile]	>10	> 8.00
N#CC[C@]1(n2cc(-c3ncnc4[nH]ccc34)cn2)C[C@H](N2CCC(Oc3cc(CN4CCC[C@@H]4CO)cc(C(F)(F)F)n3)CC2)C1 [Form 13, {trans-3-(4-{[4-{[(2R)-2-(hydroxymethyl)pyrrolidin-1-yl]methyl}-6-(trifluoromethyl)pyridin-2-yl]oxy}piperidin-1-yl)-1-[4-(7H-pyrrolo[2,3-d]pyrimidin-4-yl)-1H-pyrazol-1-yl]cyclobutyl}acetonitrile]	>10	> 8.00
C[C@H](NC(=O)c1cc(F)c(N2CC(CC#N)(n3cc(-c4ncnc5[nH]ccc45)cn3)C2)cc1F)C(F)(F)F [Form 16, 4-{3-(cyanomethyl)-3-[4-(7H-pyrrolo[2,3-d]pyrimidin-4-yl)-1H-pyrazol-1-yl]azetidin-1-yl}-2,5-difluoro-N-[(1S)-2,2,2-trifluoro-1-methylethyl]benzamide]	>10	> 8.00
N#CCC1(n2cc(-c3ncnc4[nH]ccc34)cn2)CN([C@H]2CC[C@@H](Oc3cc(CCO)nc(C(F)(F)F)n3)CC2)C1 [Form 18, {1-(cis-4-{[6-(2-hydroxyethyl)-2-(trifluoromethyl)pyrimidin-4-yl]oxy}cyclohexyl)-3-[4-(7H-pyrrolo[2,3-d]pyrimidin-4-yl)-1H-pyrazol-1-yl]azetidin-3-yl}acetonitrile]	>10	> 8.00
CCNCc1cc(O[C@H]2CC[C@@H](N3CC(CC#N)(n4cc(-c5ncnc6[nH]ccc56)cn4)C3)CC2)nc(C(F)(F)F)c1 [Form 19, {1-(cis-4-{[4-[(ethylamino)methyl]-6-(trifluoromethyl)pyridin-2-yl]oxy}cyclohexyl)-3-[4-(7H-pyrrolo[2,3-d]pyrimidin-4-yl)-1H-pyrazol-1-yl]azetidin-3-yl}acetonitrile]	>10	> 8.00
CC(C)(O)c1cc(O[C@H]2CC[C@@H](N3CC(CC#N)(n4cc(-c5ncnc6[nH]ccc56)cn4)C3)CC2)nc(C(F)(F)F)c1 [Form 20, {1-(cis-4-{[4-(1-hydroxy-1-methylethyl)-6-(trifluoromethyl)pyridin-2-yl]oxy}cyclohexyl)-3-[4-(7H-pyrrolo[2,3-d]pyrimidin-4-yl)-1H-pyrazol-1-yl]azetidin-3-yl}acetonitrile]	>10	> 8.00
N#CCC1(n2cc(-c3ncnc4[nH]ccc34)cn2)CN([C@H]2CC[C@@H](Oc3cc(CN4CC[C@@H](O)C4)cc(C(F)(F)F)n3)CC2)C1 [Form 21, {1-(cis-4-{[4-{[(3R)-3-hydroxypyrrolidin-1-yl]methyl}-6-(trifluoromethyl)pyridin-2-yl]oxy}cyclohexyl)-3-[4-(7H-pyrrolo[2,3-d]pyrimidin-4-yl)-1H-pyrazol-1-yl]azetidin-3-yl}acetonitrile]	>10	> 8.00

Now from value to molecule:

JAK2/JAK1 (JAK2 (a.a. 828-1132))	pIC50 [1]	Structure (SMILES)
>10	> 8.00	N#CCC(C1CCN(c2cccc(Cl)n2)C1)n1cc(-c2ncnc3[nH]ccc23)cn1 (single isomer, unassigned) [Form 3, 3-[1-(6-chloropyridin-2-yl)pyrrolidin-3-yl]-3-[4-(7H-pyrrolo[2,3-d]pyrimidin-4-yl)-1H-pyrazol-1-yl]propanenitrile]
>10	> 8.00	N#CCC(C1CCN(c2nc3cccnc3o2)C1)n1cc(-c2ncnc3[nH]ccc23)cn1 (stereo not shown) [Form 4, 3-(1-[1,3]oxazolo[5,4-b]pyridin-2-ylpyrrolidin-3-yl)-3-[4-(7H-pyrrolo[2,3-d]pyrimidin-4-yl)-1H-pyrazol-1-yl]propanenitrile]
>10	> 8.00	N#CCC(CN1CCN(C(=O)c2ccc(C#N)cc2F)CC1)n1cc(-c2ncnc3[nH]ccc23)cn1 (stereo not shown) [Form 5, 4-[(4-{3-cyano-2-[4-(7H-pyrrolo[2,3-d]pyrimidin-4-yl)-1H-pyrazol-1-yl]propyl}piperazin-1-yl)carbonyl]-3-fluorobenzonitrile]
>10	> 8.00	N#CCC(CN1CCN(C(=O)c2ccc(C#N)cc2F)CC1)n1ccc(-c2ncnc3[nH]ccc23)c1 (stereo not shown) [Form 6, 4-[(4-{3-cyano-2-[3-(7H-pyrrolo[2,3-d]pyrimidin-4-yl)-1H-pyrrol-1-yl]propyl}piperazin-1-yl)carbonyl]-3-fluorobenzonitrile]
>10	> 8.00	N#CCC1(n2cc(-c3ncnc4[nH]ccc34)cn2)CN(C2CCN(C(=O)c3ccnc(C(F)(F)F)c3F)CC2)C1 [Form 7, {1-{1-[3-Fluoro-2-(trifluoromethyl)isonicotinoyl]piperidin-4-yl}-3-[4-(7H-pyrrolo[2,3-d]pyrimidin-4-yl)-1H-pyrazol-1-yl]azetidin-3-yl}acetonitrile]
>10	> 8.00	N#CCC1(n2cc(-c3ncnc4[nH]ccc34)cn2)CN(C2CCN(C(=O)Nc3ccc(F)cc3C(F)(F)F)CC2)C1 [Form 8, 4-{3-(Cyanomethyl)-3-[4-(7H-pyrrolo[2,3-d]pyrimidin-4-yl)-1H-pyrazol-1-yl]azetidin-1-yl}-N-[4-fluoro-2-(trifluoromethyl)phenyl]piperidine-1-carboxamide]
>10	> 8.00	N#CCC1(n2cc(-c3ncnc4[nH]ccc34)cn2)CN(C2CCN(C(=O)c3ccnc(C(F)(F)F)n3)CC2)C1 [Form 9, [3-[4-(7H-pyrrolo[2,3-d]pyrimidin-4-yl)-1H-pyrazol-1-yl]-1-(1-{[2-(trifluoromethyl)pyrimidin-4-yl]carbonyl}piperidin-4-yl)azetidin-3-yl]acetonitrile]
>10	> 8.00	N#CC[C@]1(n2cc(-c3ncnc4[nH]ccc34)cn2)C[C@H](N2CCN(C(=O)c3ccnc(C(F)(F)F)n3)CC2)C1 [Form 10, [trans-1-[4-(7H-pyrrolo[2,3-d]pyrimidin-4-yl)-1H-pyrazol-1-yl]-3-(4-{[2-(trifluoromethyl)pyrimidin-4-yl]carbonyl}piperazin-1-yl)cyclobutyl]acetonitrile]
>10	> 8.00	N#CC[C@]1(n2cc(-c3ncnc4[nH]ccc34)cn2)C[C@H](N2CCC(Oc3cc(CN4CC(O)C4)cc(C(F)(F)F)n3)CC2)C1 [Form 11, {trans-3-(4-{[4-[(3-hydroxyazetidin-1-yl)methyl]-6-(trifluoromethyl)pyridin-2-yl]oxy}piperidin-1-yl)-1-[4-(7H-pyrrolo[2,3-d]pyrimidin-4-yl)-1H-pyrazol-1-yl]cyclobutyl}acetonitrile]
